Data published in paper PMC11766601, “A Comparative Study of the In Vitro Intestinal Permeability of Pinnatoxins and Portimine” (Marine Drugs, 2025).
Read-outs that look alike come from different tables or passages of the source. Marks after values point to notes of the source that are not given here.

What was measured:
Caco-2 cells = test: Trans-epithelial electrical resistance (TEER) of differentiated Caco-2 monolayers; format: cell-based, human; settings: 24 h; for effect on TEER: 16 and 32 ng/mL
Description: (§1) All experiments were performed with human intestinal Caco-2 cells (ATCC-HTB37), acquired from the American Type Culture Collection (ATCC; Manassas, VA, USA). Caco-2 cells originate from a colorectal adenocarcinoma, but upon reaching confluence, they differentiate and express the characteristics of enterocytes. The cells were cultivated in minimum essential medium containing 5.5 mM D-glucose, Earle’s salts, and 2 mM L-alanyl-glutamine (MEM GlutaMAX™, Gibco, Bromont, QC, Canada) supplemented with 10% fetal bovine serum (FBS, Gibco), 1% non-essential amino acids, 50 U/mL penicillin, and 50 μg/mL streptomycin (Gibco) under humidified conditions (37 °C, 5% CO2, 95% humidity). The cells were grown for 3–4 days up to 80% confluence before trypsinization and sub-culture. For the experiments, the cells were seeded in TRANSWELL® plates (12 wells, 0.4 µm pore size; Costar®, Corning Incorporated, Corning, NY, USA) at a density of 90,000 cells/cm^2. Prior to toxin treatment, highly differentiated Caco-2 cells were obtained after 24–26 days of culture, with medium renewal every 2–3 days. Passage numbers between 30 and 40 were used for experiments.
(§2) PnTX-A, PnTX-G, PnTX-E, PnTX-H, and portimine stock solutions were prepared in methanol, while PnTX-F was provided in acetonitrile/acetic acid (50%/0.1%). For each toxin, the cells were incubated at 8, 16, and 32 ng/mL (diluted in HBSS) for 2 h, 6 h, and 24 h, with a final volume of 1.5% solvent. The controls were incubated with the cell culture medium containing the respective solvent of the toxin at 1.5%. Each experiment included three biological replicates. Two to three independent experiments were conducted.
Epithelial integrity was examined by measuring the TEER between the apical and basolateral compartments. After rinsing with a HBSS solution (HBSS, HEPES 5 mM, pH 7.4), the Caco-2 monolayers were equilibrated for 30 min at 37 °C with 300 and 1000 µL HBSS in the apical (A) and basolateral (B) chambers, respectively. Then, the content of the apical compartment was replaced with 500 µL HBSS-containing toxins. TEER was quantified with a Millipore Millicell Electrical Resistance System (ERS Millipore, EMD Millipore Corporation, Burlington, MA, USA). The mean value of two measurements per well before and after the treatment was calculated and multiplied by the surface of the insert to obtain Ω × cm^2. After blank subtraction, the results were presented as a percentage of the solvent control.

[1] = set-up: method as in PMID 32246951; settings: Anses 2020; cited from earlier work
[2] = Toxin crossing and apparent permeability across Caco-2 cell monolayers (A to B), LC-MS/MS; format: in vitro ADME, human; settings: human, Caco-2; for Papp at 2 h, 8 ng/mL / Papp at 6 h, 8 ng/mL: loaded 8 ng/mL; for Papp at 2 h, 8 ng/mL / Papp at 2 h, 16 ng/mL / Papp at 2 h, 32 ng/mL / Papp at 6 h, 8 ng/mL / Papp at 6 h, 16 ng/mL / Papp at 6 h, 32 ng/mL: A to B; for Papp at 2 h, 16 ng/mL / Papp at 6 h, 16 ng/mL: loaded 16 ng/mL; for Papp at 2 h, 32 ng/mL / Papp at 6 h, 32 ng/mL: loaded 32 ng/mL
Description: as §1, §2
(§3) The apical and basolateral compartments were collected after 2, 6, and 24 h treatment time. Parts of the solutions that were used to load the apical compartments were also stored (T0) to take into account the real concentration and not the estimated concentration. All the samples were stored at −20 °C until LC/MS analysis.
(§4) The LC-MS/MS analysis of toxins was implemented for the quantitative analysis of toxins. The LC system was an Agilent 1200 (Agilent Technologies, Santa Clara, CA, USA). The chromatographic separation was performed using a column Hypersil GOLD® C18 50 mm × 2.1 mm, 1.9 μm (Thermo Scientific, Waltham, MA, USA). Eluent A consisted of water, and eluent B of acetonitrile/water at a ratio of 95:5 (v/v), with both eluents containing 50 mM formic acid and 2 mM ammonium formate. The LC flow rate was 0.4 mL/min, and the gradient was programmed as follows: 10% B held for 0.5 min, 10–90% B in 5 min, 90% B held for 1 min, 90–10% B in 0.5 min, and 10% B held for 3.0 min, for a total run time of 10 min. The injection volume was 5 μL, while the column temperature was maintained at 40 °C. The column effluent was transferred via a divert valve (Valco Instruments Co., Inc., Houston, TX, USA), either to the mass spectrometer (between 1.7 and 5.5 min) or to waste.
(§5) The detection system was constructed with an API 4000 triple quadrupole mass spectrometer (Sciex, Framingham, MA, USA) equipped with an ElectroSpray Ionization (ESI) source (Turbo V). The mass spectrometer was operated in positive ESI mode. The source temperature was set at 600 °C, and the spray voltage was 5500 V. Air was used as a nebulizer gas and an auxiliary gas, with a gas pressure of 40 and 60 psi, respectively. Meanwhile, the curtain gas and collision gas were nitrogen, with a gas pressure of 15 and 8 psi, respectively. The mass spectrometer was operated in multiple reaction monitoring mode (MRM). One transition was used for quantification (Q) and another as a qualifier transition (q). A mass resolution of 0.7 Da full width at half maximum (FWHD) was set on the first (Q1) and the third (Q3) quadrupoles. Instrument control and data were handled with Analyst software version 1.5.1 (Sciex, Framingham, MA, USA).
(§6) The portimine and PnTX retention times varied between 2.7 and 4.4 min (Figure S1). […]

Caco-2 cell monolayers [3] = test: as above; format: in vitro ADME, human; settings: for % theoretical amount of toxin crossing the Caco-2 cell monolayers: relative to theoretical loaded concentration; for Percentage of toxin crossing the Caco-2 cell monolayers: A to B, relative to quantified T0; for permeability / oral bioavailability class from Caco-2 Papp: threshold Papp > 1.5 × 10^−6 cm·s^−1 = highly penetrative
Description: as §1, §2, §3, §4, §5, §6

rats = tested on: rats; set-up: method as in PMID 34380275; settings: six hours after gavage of rats with [H^3] 100 µg/kg; liver, kidney, spleen, brain regions; cited from earlier work
Caco-2 cell monolayers [4] = test: Lucifer Yellow paracellular permeability (barrier integrity); format: cell-based, human; settings: 24 h; for effect on LY permeability: all concentrations (8, 16, 32 ng/mL)
Description: as §1, §2
For the assay, both compartments of the insert system were washed with Hank’s balanced salt solution (HBSS). Then, 0.5 mL of 0.1 mg/mL Lucifer Yellow in HBSS buffer and 1 mL of pure HBSS buffer were added to the apical and basolateral compartments, respectively. After a 2 h incubation at 37 °C, the media of the basolateral compartments were collected and the fluorescence of each compartment was measured in triplicate (excitation: 405 nm, emission: 520 nm) with a FLUOstar Optima microplate reader (BMG Labtech, Ortenberg, Germany). After subtraction of the blank (HBSS), the permeability of the […] was calculated against the value obtained for pure LY and reported as % permeability.

mice [5] = settings: cited from earlier work
cancer cells = settings: cited from earlier work
mice [6] = settings: cited from earlier work; remark: listed apart in the source

SMILES | effect on TEER (Caco-2 cells) | Papp at 2 h, 8 ng/mL [2] [×10⁻⁶ cm/s] | Papp at 2 h, 16 ng/mL [2] [×10⁻⁶ cm/s] | Papp at 2 h, 32 ng/mL [2] [×10⁻⁶ cm/s] | Papp at 6 h, 8 ng/mL [2] [×10⁻⁶ cm/s] | Papp at 6 h, 16 ng/mL [2] [×10⁻⁶ cm/s] | Papp at 6 h, 32 ng/mL [2] [×10⁻⁶ cm/s] | % theoretical amount of toxin crossing the Caco-2 cell monolayers (Caco-2 cell monolayers [3]; 2 h, 8 ng/mL) [%] | % theoretical amount of toxin crossing the Caco-2 cell monolayers (Caco-2 cell monolayers [3]; 2 h, 16 ng/mL) [%] | % theoretical amount of toxin crossing the Caco-2 cell monolayers (Caco-2 cell monolayers [3]; 2 h, 32 ng/mL) [%] | Percentage of toxin crossing the Caco-2 cell monolayers (Caco-2 cell monolayers [3]; 2 h, loaded 8 ng/mL) | Percentage of toxin crossing the Caco-2 cell monolayers (Caco-2 cell monolayers [3]; 2 h, loaded 16 ng/mL) [%] | Percentage of toxin crossing the Caco-2 cell monolayers (Caco-2 cell monolayers [3]; 2 h, loaded 32 ng/mL) [%] | % theoretical amount of toxin crossing the Caco-2 cell monolayers (Caco-2 cell monolayers [3]; 6 h, 8 ng/mL) [%] | % theoretical amount of toxin crossing the Caco-2 cell monolayers (Caco-2 cell monolayers [3]; 6 h, 16 ng/mL) [%] | % theoretical amount of toxin crossing the Caco-2 cell monolayers (Caco-2 cell monolayers [3]; 6 h, 32 ng/mL) [%] | Percentage of toxin crossing the Caco-2 cell monolayers (Caco-2 cell monolayers [3]; 6 h, loaded 8 ng/mL) [%] | Percentage of toxin crossing the Caco-2 cell monolayers (Caco-2 cell monolayers [3]; 6 h, loaded 16 ng/mL) [%] | Percentage of toxin crossing the Caco-2 cell monolayers (Caco-2 cell monolayers [3]; 6 h, loaded 32 ng/mL) [%] | permeability / oral bioavailability class from Caco-2 Papp (Caco-2 cell monolayers [3]) | other results
C=CC1=CC2C3OC4(CC5CCCC6(CCC7(OC(CCC7(C)O)CC(=C)CCCC7=NCC(C)C(C)CC72CC1)O6)O5)CC(C)C(O)C3O4 (stereo not shown) [PnTX-G, Pinnatoxin G] | slight, but non-significant, decrease | 9.69 ± 3.25 | 14.4 ± 2.7 | 14.3 ± 3.45 | 21.4 ± 5.82 | 22.8 ± 3.26 | 26.9 ± 3.82 | 6.83 ± 1.04 | 8.37 ± 1.19 | 8.64 ± 0.53 | 15.62 ± 5.24% | 23.32 ± 4.36 | 23.07 ± 5.56 | 15.17 ± 0.58 | 13.25 ± 1.30 | 16.58 ± 2.86 | 34.43 ± 9.39 | 36.83 ± 5.26 | 43.41 ± 6.15 | high oral bioavailability | provisional acute health-based guidance value [1]: 0.13 μg PnTX-G/kg body weight per day; tissue distribution of radioactivity (rats): radioactivity was distributed in the peripheral organs; effect on passage of LY (Caco-2 cell monolayers [4]): lower effect; effect on the small intestine (mice [5]; mice orally treated with 300 μg/kg and above, villous atrophy, focal degeneration of epithelial cells): alteration of the small intestine; onset of toxicity after oral exposure (mice [5]; oral exposure to a certain dose): within one hour
C=CC1=CC2C3O[C@]4(CCC(O4)[C@@H](C)C[C@@H](O)C3=O)CC(=O)C3=NCC[C@@]32CC1 (stereo partly shown) [Portimine-B, portimine-B, reference compound] | – | – | – | – | – | – | – | – | – | – | – | – | – | – | – | – | – | – | – | – | apoptosis induction (cancer cells; cancer cells): induces apoptosis in cancer cells but with less activity
C=C1CCCC2=NCC(C)C(C)CC23CCC(C(O)CCC(=O)O)=CC3C2OC3(CC(C)CC2O3)CC2OC3(CCC4(OC(CCC4(C)O)C1)O3)CC(C)C2O (stereo not shown) [PnTX-E] | slight, but non-significant, decrease | 3.75 | 1.5 ± 0.4 | 1.81 ± 0.28 | 2.04 ± 0.4 | 1.49 ± 0.65 | 2.38 ± 0.71 | 5.25 | 2.12 ± 0.71 | 2.47 ± 0.31 | 6.05 * % | 2.41 ± 0.65 | 2.92 ± 0.45 | 2.87 ± 0.53 | 2.12 ± 1.06 | 3.25 ± 0.88 | 3.29 ± 0.64 | 2.40 ± 1.06 | 3.85 ± 1.15 | poor permeability | Papp ([2]; 2 and 6 h, 8-32 ng/mL, read-out: Papp, range of means): 1.49 to 3.75 ×10⁻⁶ cm/s; decrease of toxin amount in the apical compartment (Caco-2 cell monolayers [3]; 2 h, all the tested concentrations): approximately 15%; toxin amount in the apical compartment (Caco-2 cell monolayers [3]; 6 h): approximately 100 % of the loaded amount; amount of toxin crossing the intestinal barrier in vitro (Caco-2 cell monolayers [3]; regardless of the concentration loaded, 2 and 6 h): < 4%; effect on LY permeability (Caco-2 cell monolayers [4]): significant increase; macroscopic lesions on the intestine, other organs and tissues (mice [5]; mice, oral exposure): no macroscopic lesions
C=CC1=CC2C3O[C@]4(CCC(O4)[C@@H](C)C[C@@H](O)C3=O)C[C@H](O)C3=NCC[C@@]32CC1 (stereo partly shown) [Portimine, portimine] | – | 5.72 ± 0.91 | 9.6 ± 0.55 | 14.4 ± 5.27 | 15 ± 2.29 | 19 ± 349 | 24.5 ± 3.01 | 8.50 ± 1.25 | 13.33 ± 1.69 | 20.73 ± 7.28 | 9.23 ± 1.46% | 15.48 ± 0.89 | 23.25 ± 6.88 | 22.33 ± 3.36 | 26.08 ± 3.00 | 34.60 ± 4.41 | 24.23 ± 3.69 | 30.63 ± 5.62 | 39.45 ± 4.86 | high oral bioavailability | TEER (Caco-2 cells; all of the concentrations (8, 16, 32 ng/mL)): 10.02 ± 0.96 % of control value; mechanism of transport from the apical to the basolateral compartment (Caco-2 cell monolayers [3]; inferred from concentration-dependent Papp): passive diffusion; acute intraperitoneal toxicity (mice [6]): not very toxic; apoptosis induction (cancer cells; observed by several methods): induces apoptosis; effect on LY permeability (Caco-2 cell monolayers [4]): significant increase
